Measurements as given in the NIST ThermoML archive (doi:10.1021/je4005323).
± gives the expanded uncertainty stated by the source.

Conditions: Liquid; for speed of sound: Pulse-echo method; for mass density: Vibrating tube method

Compound `CCCCCCCC/C=C\CCCCCCCC(=O)OC` [methyl cis-9-octadecenoate] has a speed of sound (283.15 K, 101.3 kPa) of 1443.2 ± 3.2 m/s, a speed of sound (283.15 K, 10000 kPa) of 1486.1 ± 3.3 m/s and a speed of sound (283.15 K, 20000 kPa) of 1526.5 ± 3.4 m/s. It also gave a speed of sound (283.15 K, 30000 kPa) of 1564.5 ± 3.4 m/s, a speed of sound (283.15 K, 40000 kPa) of 1600.5 ± 3.5 m/s and a speed of sound (283.15 K, 50000 kPa) of 1634.5 ± 3.5 m/s. For the same compound, the speed of sound (283.15 K, 60000 kPa) was 1668.6 ± 3.6 m/s, the speed of sound (283.15 K, 70000 kPa) was 1701 ± 3.7 m/s and the speed of sound (283.15 K, 80000 kPa) was 1732.7 ± 3.7 m/s. It also gave a speed of sound (283.15 K, 90000 kPa) of 1762.7 ± 3.8 m/s, a speed of sound (283.15 K, 100000 kPa) of 1790.8 ± 5.6 m/s and a speed of sound (283.15 K, 110000 kPa) of 1819.3 ± 5.7 m/s. It also gave a speed of sound (283.15 K, 120000 kPa) of 1846 ± 5.7 m/s, a speed of sound (283.15 K, 130000 kPa) of 1872.5 ± 5.8 m/s and a speed of sound (283.15 K, 140000 kPa) of 1897.8 ± 5.9 m/s. It also gave a speed of sound (283.15 K, 150000 kPa) of 1923.3 ± 6 m/s, a speed of sound (283.15 K, 160000 kPa) of 1947.8 ± 6 m/s and a speed of sound (283.15 K, 170000 kPa) of 1971.2 ± 6.1 m/s. For the same compound, the speed of sound (283.15 K, 180000 kPa) was 1994.3 ± 6.2 m/s, the speed of sound (283.15 K, 190000 kPa) was 2016.8 ± 6.2 m/s and the speed of sound (283.15 K, 200000 kPa) was 2036.4 ± 6.3 m/s. It also gave a mass density (293.15 K, 101.3 kPa) of 873.8 ± 0.6 kg/m3, a mass density (293.15 K, 10000 kPa) of 880 ± 0.6 kg/m3 and a mass density (293.15 K, 20000 kPa) of 885.3 ± 0.6 kg/m3. For the same compound, the mass density (293.15 K, 30000 kPa) was 890.6 ± 0.6 kg/m3, the mass density (293.15 K, 40000 kPa) was 895.5 ± 0.6 kg/m3 and the mass density (293.15 K, 50000 kPa) was 900.1 ± 0.6 kg/m3. It also gave a mass density (293.15 K, 60000 kPa) of 904.5 ± 0.7 kg/m3, a mass density (293.15 K, 70000 kPa) of 908.9 ± 0.7 kg/m3 and a mass density (293.15 K, 80000 kPa) of 912.6 ± 0.7 kg/m3. The mass density (293.15 K, 90000 kPa) was 916.9 ± 0.7 kg/m3, the mass density (293.15 K, 100000 kPa) was 920.7 ± 0.7 kg/m3 and the speed of sound (303.15 K, 101.3 kPa) was 1370.5 ± 3.1 m/s. The mass density (303.15 K, 101.3 kPa) was 866.3 ± 0.6 kg/m3, the speed of sound (303.15 K, 10000 kPa) was 1416.8 ± 3.1 m/s and the mass density (303.15 K, 10000 kPa) was 872.8 ± 0.6 kg/m3. It also gave a speed of sound (303.15 K, 20000 kPa) of 1460 ± 3.2 m/s, a mass density (303.15 K, 20000 kPa) of 878.4 ± 0.6 kg/m3 and a speed of sound (303.15 K, 30000 kPa) of 1502 ± 3.3 m/s. For the same compound, the mass density (303.15 K, 30000 kPa) was 883.9 ± 0.6 kg/m3, the speed of sound (303.15 K, 40000 kPa) was 1540.9 ± 3.4 m/s and the mass density (303.15 K, 40000 kPa) was 888.9 ± 0.6 kg/m3. For the same compound, the speed of sound (303.15 K, 50000 kPa) was 1578.3 ± 3.4 m/s, the mass density (303.15 K, 50000 kPa) was 893.7 ± 0.7 kg/m3 and the speed of sound (303.15 K, 60000 kPa) was 1613.7 ± 3.5 m/s. It also gave a mass density (303.15 K, 60000 kPa) of 898.3 ± 0.7 kg/m3, a speed of sound (303.15 K, 70000 kPa) of 1647 ± 3.6 m/s and a mass density (303.15 K, 70000 kPa) of 902.7 ± 0.7 kg/m3. It also gave a speed of sound (303.15 K, 80000 kPa) of 1678.8 ± 3.6 m/s, a mass density (303.15 K, 80000 kPa) of 906.9 ± 0.7 kg/m3 and a speed of sound (303.15 K, 90000 kPa) of 1709.5 ± 3.7 m/s. The mass density (303.15 K, 90000 kPa) was 910.9 ± 0.7 kg/m3, the speed of sound (303.15 K, 100000 kPa) was 1739.7 ± 5.4 m/s and the mass density (303.15 K, 100000 kPa) was 915.4 ± 0.7 kg/m3. The speed of sound (303.15 K, 110000 kPa) was 1768.5 ± 5.5 m/s, the speed of sound (303.15 K, 120000 kPa) was 1796.4 ± 5.6 m/s and the speed of sound (303.15 K, 130000 kPa) was 1821.2 ± 5.7 m/s. It also gave a speed of sound (303.15 K, 140000 kPa) of 1848.1 ± 5.7 m/s, a speed of sound (303.15 K, 150000 kPa) of 1874.2 ± 5.8 m/s and a speed of sound (303.15 K, 160000 kPa) of 1899 ± 5.9 m/s. It also gave a speed of sound (303.15 K, 170000 kPa) of 1923.1 ± 6 m/s, a speed of sound (303.15 K, 180000 kPa) of 1947 ± 6 m/s and a speed of sound (303.15 K, 190000 kPa) of 1970.3 ± 6.1 m/s. It also gave a speed of sound (303.15 K, 200000 kPa) of 1992.7 ± 6.2 m/s, a mass density (313.15 K, 101.3 kPa) of 859.6 ± 0.6 kg/m3 and a mass density (313.15 K, 10000 kPa) of 865.8 ± 0.6 kg/m3. It also gave a mass density (313.15 K, 20000 kPa) of 871.7 ± 0.6 kg/m3, a mass density (313.15 K, 30000 kPa) of 877.5 ± 0.6 kg/m3 and a mass density (313.15 K, 40000 kPa) of 882.5 ± 0.6 kg/m3. It also gave a mass density (313.15 K, 50000 kPa) of 887.5 ± 0.7 kg/m3, a mass density (313.15 K, 60000 kPa) of 892.2 ± 0.7 kg/m3 and a mass density (313.15 K, 70000 kPa) of 896.7 ± 0.7 kg/m3. For the same compound, the mass density (313.15 K, 80000 kPa) was 901.2 ± 0.7 kg/m3, the mass density (313.15 K, 90000 kPa) was 905.2 ± 0.7 kg/m3 and the mass density (313.15 K, 100000 kPa) was 909.7 ± 0.7 kg/m3. For the same compound, the speed of sound (323.15 K, 101.3 kPa) was 1301.9 ± 2.9 m/s, the mass density (323.15 K, 101.3 kPa) was 852.4 ± 0.6 kg/m3 and the speed of sound (323.15 K, 10000 kPa) was 1352.1 ± 3 m/s. The mass density (323.15 K, 10000 kPa) was 858.9 ± 0.6 kg/m3, the speed of sound (323.15 K, 20000 kPa) was 1397.7 ± 3.1 m/s and the mass density (323.15 K, 20000 kPa) was 865.1 ± 0.6 kg/m3. The speed of sound (323.15 K, 30000 kPa) was 1441.1 ± 3.2 m/s, the mass density (323.15 K, 30000 kPa) was 870.9 ± 0.6 kg/m3 and the speed of sound (323.15 K, 40000 kPa) was 1482.3 ± 3.3 m/s. It also gave a mass density (323.15 K, 40000 kPa) of 876.1 ± 0.6 kg/m3, a speed of sound (323.15 K, 50000 kPa) of 1521.2 ± 3.3 m/s and a mass density (323.15 K, 50000 kPa) of 881.1 ± 0.7 kg/m3. For the same compound, the speed of sound (323.15 K, 60000 kPa) was 1558.5 ± 3.4 m/s, the mass density (323.15 K, 60000 kPa) was 886.2 ± 0.7 kg/m3 and the speed of sound (323.15 K, 70000 kPa) was 1593.5 ± 3.5 m/s. For the same compound, the mass density (323.15 K, 70000 kPa) was 891 ± 0.7 kg/m3, the speed of sound (323.15 K, 80000 kPa) was 1627.2 ± 3.5 m/s and the mass density (323.15 K, 80000 kPa) was 895.5 ± 0.7 kg/m3. For the same compound, the speed of sound (323.15 K, 90000 kPa) was 1659.3 ± 3.6 m/s, the mass density (323.15 K, 90000 kPa) was 899.7 ± 0.7 kg/m3 and the speed of sound (323.15 K, 100000 kPa) was 1690.2 ± 5.3 m/s. The mass density (323.15 K, 100000 kPa) was 904.1 ± 0.8 kg/m3, the speed of sound (323.15 K, 110000 kPa) was 1719.3 ± 5.4 m/s and the speed of sound (323.15 K, 120000 kPa) was 1747.7 ± 5.4 m/s. For the same compound, the speed of sound (323.15 K, 130000 kPa) was 1775.4 ± 5.5 m/s, the speed of sound (323.15 K, 140000 kPa) was 1801.6 ± 5.6 m/s and the speed of sound (323.15 K, 150000 kPa) was 1827.1 ± 5.7 m/s. For the same compound, the speed of sound (323.15 K, 160000 kPa) was 1853 ± 5.7 m/s, the speed of sound (323.15 K, 170000 kPa) was 1878.4 ± 5.8 m/s and the speed of sound (323.15 K, 180000 kPa) was 1902.6 ± 5.9 m/s. For the same compound, the speed of sound (323.15 K, 190000 kPa) was 1925.8 ± 6 m/s, the speed of sound (323.15 K, 200000 kPa) was 1949.2 ± 6 m/s and the mass density (333.15 K, 101.3 kPa) was 844.8 ± 0.6 kg/m3. For the same compound, the mass density (333.15 K, 10000 kPa) was 851.7 ± 0.6 kg/m3, the mass density (333.15 K, 20000 kPa) was 858.3 ± 0.6 kg/m3 and the mass density (333.15 K, 30000 kPa) was 864.2 ± 0.6 kg/m3. For the same compound, the mass density (333.15 K, 40000 kPa) was 869.7 ± 0.7 kg/m3, the mass density (333.15 K, 50000 kPa) was 875 ± 0.7 kg/m3 and the mass density (333.15 K, 60000 kPa) was 880.1 ± 0.7 kg/m3. For the same compound, the mass density (333.15 K, 70000 kPa) was 884.9 ± 0.7 kg/m3, the mass density (333.15 K, 80000 kPa) was 889.4 ± 0.7 kg/m3 and the mass density (333.15 K, 90000 kPa) was 893.9 ± 0.8 kg/m3. The mass density (333.15 K, 100000 kPa) was 898.2 ± 0.8 kg/m3, the speed of sound (343.15 K, 101.3 kPa) was 1235.8 ± 2.8 m/s and the mass density (343.15 K, 101.3 kPa) was 837.8 ± 0.6 kg/m3. The speed of sound (343.15 K, 10000 kPa) was 1289 ± 2.9 m/s, the mass density (343.15 K, 10000 kPa) was 845.2 ± 0.6 kg/m3 and the speed of sound (343.15 K, 20000 kPa) was 1338.1 ± 3 m/s. It also gave a mass density (343.15 K, 20000 kPa) of 851.9 ± 0.6 kg/m3, a speed of sound (343.15 K, 30000 kPa) of 1383.7 ± 3.1 m/s and a mass density (343.15 K, 30000 kPa) of 858.1 ± 0.6 kg/m3. The speed of sound (343.15 K, 40000 kPa) was 1426 ± 3.1 m/s, the mass density (343.15 K, 40000 kPa) was 864 ± 0.7 kg/m3 and the speed of sound (343.15 K, 50000 kPa) was 1466.7 ± 3.2 m/s. It also gave a mass density (343.15 K, 50000 kPa) of 869.5 ± 0.7 kg/m3, a speed of sound (343.15 K, 60000 kPa) of 1505.4 ± 3.3 m/s and a mass density (343.15 K, 60000 kPa) of 874.6 ± 0.7 kg/m3. For the same compound, the speed of sound (343.15 K, 70000 kPa) was 1542.2 ± 3.4 m/s and the mass density (343.15 K, 70000 kPa) was 879.5 ± 0.7 kg/m3.
